The text below walks through data of ChEMBL document CHEMBL4387711, “Discovery of niclosamide and its O-alkylamino-tethered derivatives as potent antibacterial agents against carbapenemase-producing and/or colistin resistant Enterobacteriaceae isolates” (2019).

Values after ≈ are worked out from the molar mass of the structure shown. Active and inactive are the calls of the source. No cut-off for these calls is given here.

For test [1], the system named is Klebsiella pneumoniae. The test can be described thus: Antibacterial activity against colistin-resistant VIM1/DHAI/carbapenemase-producing Klebsiella pneumoniae 21 assessed as inhibition of growth at 50 uM after 18 hrs. The class given is functional, organism-based.
The test system of test [2] is Klebsiella pneumoniae. The test can be described thus: Antibacterial activity against colistin-susceptible NDM-1/carbapenemase-producing Klebsiella pneumoniae by broth microdilution method. Format: functional. For orientation: Broth dilution looks for growth in wells or tubes with falling amounts of substance.
Test [3] relates to Klebsiella pneumoniae. Kind of test: Bactericidal activity against OXA-48/CTX-M-15/carbapenemase-producing Klebsiella pneumoniae 28 assessed as reduction in bacterial count at MIC measured from 2 hrs in presence of colistin by time kill assay. The class given is functional, organism-based.
For test [4], the system named is Escherichia coli. Kind of test: Antibacterial activity against colistin-susceptible NDM1/KPC-producing Escherichia coli assessed as inhibition of growth at 50 uM after 18 hrs. The class given is functional, organism-based.
The test system of test [5] is Escherichia coli. The test can be described thus: Antibacterial activity against colistin-susceptible NDM1/KPC-producing Escherichia coli by broth microdilution method. Format: functional.
For test [6], the system named is Enterobacter cloacae. The test can be described thus: Antibacterial activity against colistin-resistant Enterobacter cloacae 280 by broth microdilution method. Format: functional.
The test system of test [7] is Enterobacter cloacae. Kind of test: Antibacterial activity against colistin-resistant Enterobacter cloacae 280 assessed as inhibition of growth at 50 uM after 18 hrs. Format: functional, organism-based.
Test [8] relates to Enterobacter cloacae. Kind of test: Antibacterial activity against colistin-resistant Enterobacter cloacae 32 assessed as inhibition of growth at 50 uM after 18 hrs. Format: functional, organism-based.
The test system of test [9] is Enterobacter cloacae. The test can be described thus: Antibacterial activity against colistin-resistant Enterobacter cloacae 297 by broth microdilution method. Format: functional.
Test [10] relates to Enterobacter cloacae. The test can be described thus: Antibacterial activity against colistin-resistant Enterobacter cloacae 190 assessed as inhibition of growth at 50 uM after 18 hrs. The class given is functional, organism-based.
Test [11] deals with Klebsiella pneumoniae. Kind of test: Antibacterial activity against colistin-susceptible VIM1/carbapenemase-producing Klebsiella pneumoniae 07 assessed as inhibition of growth at 50 uM after 18 hrs. Format: functional, organism-based.
The subject of test [12] is Klebsiella aerogenes. Kind of test: Antibacterial activity against colistin-resistant Enterobacter aerogenes 3 assessed as inhibition of growth at 50 uM after 18 hrs. The class given is functional, organism-based.
In test [13] the test system is Klebsiella aerogenes. Kind of test: Antibacterial activity against colistin-resistant Enterobacter aerogenes 53 assessed as inhibition of growth at 50 uM after 18 hrs. Format: functional, organism-based.
The subject of test [14] is Enterobacter cloacae. Kind of test: Antibacterial activity against colistin-resistant Enterobacter cloacae 297 assessed as inhibition of growth at 50 uM after 18 hrs. The class given is functional, organism-based.
For test [15], the system named is Escherichia coli. Kind of test: Synergistic antibacterial activity against colistin-susceptible NDM1/KPC-producing Escherichia coli in presence of colistin by checkerboard assay. Format: functional.
The subject of test [16] is Klebsiella pneumoniae. The test can be described thus: Synergistic bactericidal activity against OXA-48/CTX-M-15/carbapenemase-producing Klebsiella pneumoniae 28 assessed as reduction in bacterial count at MIC measured after 2 hrs in presence of colistin by time kill assay. Format: functional, organism-based.
The subject of test [17] is Klebsiella pneumoniae. Kind of test: Antibacterial activity against colistin-resistant OXA-48/CTX-M-15/carbapenemase-producing Klebsiella pneumoniae 29 assessed as inhibition of growth at 50 uM after 18 hrs. The class given is functional, organism-based.
The subject of test [18] is Klebsiella pneumoniae. The test can be described thus: Antibacterial activity against colistin-susceptible OXA-48/CTX-M-15/carbapenemase-producing Klebsiella pneumoniae 28 by broth microdilution method. The class given is functional.
The subject of test [19] is Klebsiella pneumoniae. Kind of test: Antibacterial activity against colistin-susceptible OXA-48/CTX-M-15/carbapenemase-producing Klebsiella pneumoniae 28 assessed as inhibition of growth at 50 uM after 18 hrs. The class given is functional, organism-based.
Test [20] has as its system Klebsiella pneumoniae. The test can be described thus: Antibacterial activity against Klebsiella pneumoniae CECT-997 assessed as inhibition of growth at 50 uM after 18 hrs. Format: functional, organism-based.
For test [21], the system named is Enterobacter cloacae. The test can be described thus: Antibacterial activity against colistin-resistant Enterobacter cloacae 272 assessed as inhibition of growth at 50 uM after 18 hrs. Format: functional, organism-based.
For test [22], the system named is Enterobacter cloacae. Kind of test: Antibacterial activity against colistin-resistant Enterobacter cloacae 263 assessed as inhibition of growth at 50 uM after 18 hrs. The class given is functional, organism-based.
The subject of test [23] is Klebsiella pneumoniae. Kind of test: Antibacterial activity against colistin-susceptible NDM-1/carbapenemase-producing Klebsiella pneumoniae assessed as inhibition of growth at 50 uM after 18 hrs. The class given is functional, organism-based.
Test [24] relates to Klebsiella pneumoniae. Kind of test: Antibacterial activity against carbapenemase/Klebsiella pneumoniae CECT-997 by broth microdilution method. Format: functional.
Test [25] concerns Enterobacter cloacae. The test can be described thus: Antibacterial activity against colistin-resistant Enterobacter cloacae 142 assessed as inhibition of growth at 50 uM after 18 hrs. The class given is functional, organism-based.
In test [26] the test system is Enterobacter cloacae. Kind of test: Synergistic antibacterial activity against colistin-resistant Enterobacter cloacae 280 in presence of colistin by checkerboard assay. Format: functional.
Test [27] has as its system Enterobacter cloacae. The test can be described thus: Bactericidal activity against colistin-resistant Enterobacter cloacae 280 assessed as reduction in bacterial count at MIC measured after 2 hrs in presence of colistin by time kill assay. The class given is functional, organism-based.
Test [28] relates to Enterobacter cloacae. The test can be described thus: Synergistic antibacterial activity against colistin-resistant Enterobacter cloacae 297 in presence of colistin by checkerboard assay. Format: functional.
Test [29] concerns Enterobacter cloacae. Kind of test: Synergistic bactericidal activity against colistin-resistant Enterobacter cloacae 280 assessed as reduction in bacterial count at MIC measured after 8 hrs in presence of colistin by time kill assay. The class given is functional, organism-based.
Test [30] deals with Enterobacter cloacae. The test can be described thus: Antibacterial activity against colistin-resistant Enterobacter cloacae 32 by broth microdilution method. The class given is functional, organism-based.
For test [31], the system named is Klebsiella pneumoniae. Kind of test: Antibacterial activity against colistin-resistant OXA-48/CTX-M-15/carbapenemase-producing Klebsiella pneumoniae 29 by broth microdilution method. The class given is functional, organism-based.
For test [32], the system named is Escherichia coli. Kind of test: Bactericidal activity against colistin-susceptible NDM-1/KPC-producing Escherichia coli assessed as reduction in bacterial count at MIC measured after 2 hrs by time kill assay. The class given is functional, organism-based.
In test [33] the test system is Klebsiella aerogenes. The test can be described thus: Antibacterial activity against colistin-resistant Enterobacter aerogenes 3 by broth microdilution method. The class given is functional, organism-based.
The subject of test [34] is Enterobacter cloacae. The test can be described thus: Antibacterial activity against colistin-resistant Enterobacter cloacae 190 by broth microdilution method. The class given is functional, organism-based.
Test [35] relates to Klebsiella pneumoniae. Kind of test: Antibacterial activity against colistin-susceptible VIM1/carbapenemase-producing Klebsiella pneumoniae 07 by broth microdilution method. Format: functional, organism-based.
For test [36], the system named is Enterobacter cloacae. Kind of test: Antibacterial activity against colistin-resistant Enterobacter cloacae 272 by broth microdilution method. Format: functional, organism-based.
For test [37], the system named is Enterobacter cloacae. Kind of test: Antibacterial activity against colistin-resistant Enterobacter cloacae 142 by broth microdilution method. Format: functional, organism-based.
Test [38] has as its system Klebsiella aerogenes. The test can be described thus: Antibacterial activity against colistin-resistant Enterobacter aerogenes 53 by broth microdilution method. The class given is functional, organism-based.
For test [39], the system named is Enterobacter cloacae. Kind of test: Antibacterial activity against colistin-resistant Enterobacter cloacae 263 by broth microdilution method. Format: functional, organism-based.
For test [40], the system named is Klebsiella pneumoniae. Kind of test: Antibacterial activity against colistin-resistant VIM1/DHAI/carbapenemase-producing Klebsiella pneumoniae 21 by broth microdilution method. Format: functional, organism-based.

Broadly, the MIC is the lowest concentration that inhibits growth of the organism. In the case of `NCCCCCOc1ccc(Cl)cc1C(=O)Nc1ccc([N+](=O)[O-])cc1Cl`, the “growth inhibition (GI)” value in test [1], in [7], in test [8], in test [10], in test [11] and in [12] was “inactive” in each case. In addition, the “growth inhibition (GI)” value in test [13], in test [14], in test [17], in [20], in [21] and in test [22] was “inactive” each time. Moreover, in [25], the “growth inhibition (GI)” value is “inactive”. Besides, the MIC is above 15 µg/mL in test [2], above 15 µg/mL in [5] and 15 µg/mL (≈ 36.4 µM) in test [18]. For the same compound, the outcome in test [3] and in test [16] was Active. The “growth inhibition (GI)” value in test [4], in test [19] and in test [23] was “Active” throughout. In addition, the MIC result in test [6], in [9] and in test [24] was “inactive” each time. Further, in [15], the “fractional inhibitory concentration index (FICI)” value is recorded as 0.38.

As to `O=C(Nc1ccc([N+](=O)[O-])cc1Cl)c1cc(Cl)ccc1O` [NICLOSAMIDE], the “growth inhibition (GI)” value in [1], in test [4], in test [8], in test [10], in test [11] and in test [12] was “inactive” throughout. The “growth inhibition (GI)” value in test [13], in test [17], in test [19], in [20], in test [21] and in [22] was “inactive” each time. The “growth inhibition (GI)” value in [23] and in [25] was “inactive” in each case. Further, the MIC result in test [2], in test [5], in test [18] and in test [24] was “inactive” throughout. For the same compound, the “fractional inhibitory concentration index (FICI)” value in test [26] and in [28] was 0.25 in each case. Also, the result in [27] and in test [29] was Active. In addition, the minimal inhibitory concentration (MIC) in test [6] and in [9] was above 15 µg/mL throughout. For the same compound, the “growth inhibition (GI)” value in [7] and in [14] was “Active” throughout.

On to `CC[C@H](N)COc1ccc(Cl)cc1C(=O)Nc1ccc([N+](=O)[O-])cc1Cl`, for which the “growth inhibition (GI)” value in [1], in test [7], in test [8], in test [10], in test [11] and in test [12] was “inactive” each time. Besides, the “growth inhibition (GI)” value in test [13], in [14], in test [17], in [19], in test [20] and in test [21] was “inactive” each time. In addition, the “growth inhibition (GI)” value in [22], in [23] and in test [25] was “inactive” in each case. Besides, the MIC entry in [2], in test [6], in test [9], in [18] and in test [24] was “inactive” in each case. For the same compound, the “growth inhibition (GI)” value in test [4] is “Active”. This compound came in with a minimum inhibitory concentration (MIC) in [5] above 15 µg/mL. Besides, in test [15], the “fractional inhibitory concentration index (FICI)” value is given as 0.5.

Turning to COLISTIN, the minimum inhibitory concentration (MIC) is 0.5 µg/mL in test [2]; above 256 µg/mL in [30]; 0.5 µg/mL in [5]; 32 µg/mL in test [6]; 3 µg/mL in [9]; 32 µg/mL in [31]. Further, the MIC stood at 32 µg/mL in [33]; 32 µg/mL in [34]; 0.5 µg/mL in [35]; 16 µg/mL in test [36]; 0.5 µg/mL in test [18]; 64 µg/mL in test [37]. In addition, the figures for the minimum inhibitory concentration (MIC) in [38], in [39] and in test [40] were 32 µg/mL, 8 µg/mL and 64 µg/mL, respectively. The result in test [32] was Active.

`NCCOCCOc1ccc(Cl)cc1C(=O)Nc1ccc([N+](=O)[O-])cc1Cl`: the “growth inhibition (GI)” value in test [1], in [7], in test [8], in test [10], in [11] and in [12] was “inactive” each time. Further, the “growth inhibition (GI)” value in [13], in [17], in [19], in test [20], in test [21] and in [22] was “inactive” throughout. Besides, the “growth inhibition (GI)” value in test [23] and in test [25] was “inactive” in each case. Moreover, the MIC entry in [2], in test [6], in test [18] and in test [24] was “inactive” in each case. For the same compound, the “growth inhibition (GI)” value in [4] and in test [14] was “Active” each time. For the same compound, the MIC in test [5] and in test [9] was above 15 µg/mL throughout.
